Here are results for one compound from US20260274810A1, “NOVEL MITOFUSIN INHIBITORS” (ALBERT EINSTEIN COLLEGE OF MEDICINE, priority 2023, published 2026).

The test system of assay [1] is MEFs. Nature of the assay: Mitochondrial membrane potential (TMRE). It counts as cell-based, mouse. How it is done: Mitochondrial depolarization assay (mtΔΨ). MEFs (10^4 cells/well) were seeded in a 96-well black plate and treated with MASM7 or MFI8 for 6 hrs. Following treatments, cells were stained with 250 nM TMRE (Sigma; Cat. 87917) for 20 min at 37° C. Subsequently, cells were washed with thrice with PBS. Fluorescence intensity was detected by a M100 microplate reader (TECAN, Ex: 540 nm/Em: 579 nm).

Assay [2] deals with U2OS cells. The experiment in a line: Minority MOMP imaging. It is filed as cell-based. The note with it: U2OS cells expressing CytoGFP and MitoCherry, 3 h. As for the experimental part:
Minority MOMP. U2OS cells (100,000) were seeded onto glass coverslips and transfected with 250 ng each of CytoGFP and Mito-mCherry as previously described 39. 16 h after transfection, cells were treated with compounds for 3 h and then fixed in 4% paraformaldehyde. Cells were imaged on a Zeiss LSM880 with Airyscan using a 63×1.4 NA objective. Subsequent to acquisition, images were processed using the Airyscan processing function in ZEN software. Minority MOMP was quantified by manually scoring the co-localisation of CytoGFP and mito-mCherry.

For assay [3], the system named is MEFs. Nature of the assay: DNA damage, γH2AX immunofluorescence. It counts as cell-based, mouse. How it is done: Immunofluorescent analysis and microscopy. Cells were treated with MASM7, MFI8 and or Q-VD-OPh at ~70% confluence for 6 h. After treatments, cells were washed with PBS and fixed with 4% PFA for 15 min. Then cells were permeabilized with 0.1% Triton X-100 in PBS for 10 min. Cells were blocked with 5% BSA in PBS-T and incubated overnight with primary antibodies as indicated; γH2AX (Sigma; 05-636, 1:100 dilution). After incubation with primary antibodies, cells were washed with PBS and incubated with the appropriate mouse secondary antibody (ThermoFisher Scientific; A-11001) in the blocking solution. After PBS washes, coverslips were dipped in water and mounted on glass slides using Vectashield containing DAPI (Vector laboratories). Images were taken with Leica SP5 inverted confocal microscope. Data were analyzed with ImageJ.

The subject of the next assay is caspase-3/7 in MEFs. Nature of the assay: Caspase-3/7 activation assay. It is filed as cell-based, mouse. How it is done:
(§1) Caspase-3/7 activation assay. Cells (5×10^3 cells/well) were seeded in a 96-well white plate and treated with MASM7, MFI8. Caspase 3/7 activation was measured after 6 hr by addition of the Caspase-Glo 3/7 reagent according to the manufacturer's protocol (Promega). Luminescence was detected by a F200 PRO microplate reader (TECAN). Caspase assays were performed in at least triplicate and the data normalized to vehicle-treated control wells. Dilutions of MASM7 or MFI8 were performed using a TECAN D300e Digital Dispenser from 10 mM stocks.

Assay [4] relates to U2OS cells. The experiment in a line: Mitochondrial fusion in U2OS cells. It counts as cell-based. How it is done: Measurement of mitochondrial aspect ratio (Mito AR). Images that depict stained mitochondria with mitotracker green were analyzed using FIJI We measured for each mitochondrion its length and width. Then, we divided the length by the width for each mitochondrion to get its mitochondrial aspect ratio. >200 mitochondria were measured per treatment.

The subject of a further assay is MFN1 and MFN2. Nature of the assay: MFN1 and MFN2 gene expression and protein levels. It is filed as cell-based. How it is done: Western blot. Western blots were performed from whole cell lysates (WCL) prepared in lysis buffer containing 50 mM Tris-HCl pH 7.5, 1% Triton X-100, 150 mM NaCl, 5 mM MgCl2, 1 mM EGTA and 10% glycerol in the presence of protease inhibitor cocktail (Roche).
Analysis of mitochondrial biogenesis-related genes by q-PCR. Total RNA was extracted by using RNeasy Mini Kit (Qiagen) followed by cDNA synthesis using the SuperScript IV VILO Master Mix (Thermo Scientific), both performed according to the manufacturer's protocol. q-PCR was performed using the following primers: […]
For the q-PCR reaction, Power SYBR Green master mix (Thermo Scientific) was used according to the manufacturer's instructions. Briefly, each reaction consisted of 10 ng cDNA, 5 μL Power SYBR Green master mix, 200 nM primers (forward and reverse), and RNase-free water up to 10 μL. q-PCR was performed on the ViiA 7 Real-Time PCR System (Thermo Scientific) with the following cycle parameter: 95° C. for 10 min, 40 cycles of 95° C. for 15 s, and 60° C. for 1 min. q-PCR products were analyzed by melting curves for unspecific products or primer dimer formation.

The subject of another assay is MOLM13 cells. The experiment in a line: Caspase 3/7 activation with AMG-176. The settings on record: increasing concentrations of AMG-176 and MFI8. It is filed as cell-based. How it is done: as §1
Assay [5] relates to MEFs. The experiment in a line: Mitochondrial respiration in cellulo (OCR). It counts as cell-based, mouse. The note with it: WT MEFs; MASM7 1 μM or MFI8 20 μM, 6 hrs. How it is done:
Mitochondrial respiration in cellulo. Mitochondrial oxygen consumption rates (OCR) were assessed using a XF24 Analyzer (Seahorse Biosciences, Billerica MA, USA). In brief, 3×10^4 MEFs were cultured in a XF24 cell culture microplate containing DMEM supplemented with 10% fetal bovine serum. Cells were treated with MASM7 (1 μM) or MFI8 (20 μM) 6 hrs prior to OCR analysis. Mitochondrial respiration was assessed by the sequential addition of oligomycin (1 μM), carbonyl cyanide-4-(trifluoromethoxy)phenylhydrazone (FCCP, 2 μM) and rotenone (1 μM)-antimycin (1 μM) as previously reported. OCR was normalized to cell number or total protein content per well for each condition tested.

The subject of a further assay is cells. The experiment in a line: Cell viability assay (CellTiter-Glo). It counts as cell-based. The note with it: 72 hours. As for the experimental part:
Cell viability assay. Cells (5×10^3 cells/well) were seeded in a 96-well white plate and treated with serial dilutions of MASM7 or MFI8. Cell viability was assayed after 72 hrs by addition of CellTiter-Glo reagent according to the manufacturer's protocol (Promega). Luminescence was measured using a F200 PRO microplate reader (TECAN). Viability assays were performed in at least triplicate and the data normalized to vehicle-treated control wells. Dilutions of MASM7 or MFI8 were performed using a TECAN D300e Digital Dispenser from 10 mM stocks.

Structures are written as SMILES.

Take `Cc1cccc(NC(C)c2cc(Cl)ccc2O)c1C` (stereo not shown) [MFI8]: the mitochondrial membrane potential entry with MEFs [1] (MFN1/MFN2 DKO MEFs reconstituted with WT MFN2) is listed as “significantly decreased mitochondrial membrane potential”; with MEFs [1] (WT MEFs, 6 hrs), “concentration responsively decreased mitochondrial membrane potential”. For the same compound, in the assay with U2OS cells [2], the MOMP entry was “induced MOMP, albeit at modest levels”. In addition, the “γH2AX foci / DNA damage” value with MEFs [3] (MFN1/MFN2 DKO MEFs) is listed as “not in MFN1/MFN2 DKO MEFs”; in the assay on MEFs [3] (WT MEFs, 6 h), “increased γH2AX foci”. The caspase-3/7 activity result was “concentration-responsively increased caspase-3/7 activity” in the assay on caspase-3/7 in MEFs (6 hr) and “impaired the capacity of MFI8 to increase caspase-3/7 activity” in the assay with caspase-3/7 in MEFs (deletion of MFN1/MFN2). Further, the “caspase 3/7 activity” value with caspase-3/7 in MEFs (deletion of APAF-1) is listed as “detrimental for the capacity of MFI8 to increase caspase 3/7 activity”. Further, in the assay on U2OS cells [4], the mitochondrial fusion result is recorded as “inhibited mitochondrial fusion in U2OS cells”. For the same compound, in the assay on MFN1 and MFN2, the “MFN1 and MFN2 gene expression and protein levels” value is “neither MASM7 nor MFI8 altered”. For the same compound, the “caspase 3/7 activation in combination with AMG-176” value in the assay on MOLM13 cells is reported as “sensitizes cells to caspase activation in response to BH3 mimetic (MCL-1 inhibitor) AMG-176 treatment”. In addition, in the assay with MEFs [5], the “respiration and mitochondrial ATP production” value is “reduced respiration and mitochondrial ATP production”. The cellular viability entry with cells was “neither MFI8 nor MASM7 decreased cellular viability”.
